Experimental data as given in US9018414B2, “Substituted 3-phenylpropionic acids and the use thereof” (Bayer Intellectual Property GmbH, priority 2009, dated 2015).

Columns and labels:
[1] = test system: recombinant guanylate cyclase reporter cell line; experiment: Action at recombinant guanylate cyclase reporter cell line (CHO reporter cell); format: cell-based; details: MEC = minimal effective concentration; read-out: sGC-activating activity in the CHO reporter cell in vitro, MEC
Description: The cellular action of the compounds according to the invention is determined at a recombinant guanylate cyclase reporter cell line, as described in F. Wunder et al., Anal. Biochem. 339, 104-112 (2005).

[2] = target: T1, haem-free recombinant soluble guanylate cyclase (sGC) (Rattus norvegicus, UniProt P20595); experiment: Stimulation of recombinant soluble guanylate cyclase (sGC) in vitro, haem-free enzyme; format: biochemical
T1 construct: made in house; host or cells: Sf9 insect cells (baculovirus)
T1 sequence (P20595 1-619): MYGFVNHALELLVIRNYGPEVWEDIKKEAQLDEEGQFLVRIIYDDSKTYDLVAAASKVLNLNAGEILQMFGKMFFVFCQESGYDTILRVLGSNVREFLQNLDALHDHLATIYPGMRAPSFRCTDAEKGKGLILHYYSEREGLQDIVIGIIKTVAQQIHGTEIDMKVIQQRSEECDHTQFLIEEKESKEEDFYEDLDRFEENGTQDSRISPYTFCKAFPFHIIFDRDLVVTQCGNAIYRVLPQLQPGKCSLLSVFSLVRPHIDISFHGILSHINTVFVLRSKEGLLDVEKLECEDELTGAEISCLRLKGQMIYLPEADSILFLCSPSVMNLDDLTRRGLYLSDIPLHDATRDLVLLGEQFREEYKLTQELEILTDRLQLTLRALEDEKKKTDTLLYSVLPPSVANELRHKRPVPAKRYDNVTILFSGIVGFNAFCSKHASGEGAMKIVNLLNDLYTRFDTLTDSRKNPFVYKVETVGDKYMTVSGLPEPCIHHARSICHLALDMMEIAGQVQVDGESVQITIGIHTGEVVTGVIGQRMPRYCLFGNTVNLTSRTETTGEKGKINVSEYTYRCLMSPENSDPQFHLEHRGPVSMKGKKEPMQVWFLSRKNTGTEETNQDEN
T1 sequence (P19686 1-690 partner): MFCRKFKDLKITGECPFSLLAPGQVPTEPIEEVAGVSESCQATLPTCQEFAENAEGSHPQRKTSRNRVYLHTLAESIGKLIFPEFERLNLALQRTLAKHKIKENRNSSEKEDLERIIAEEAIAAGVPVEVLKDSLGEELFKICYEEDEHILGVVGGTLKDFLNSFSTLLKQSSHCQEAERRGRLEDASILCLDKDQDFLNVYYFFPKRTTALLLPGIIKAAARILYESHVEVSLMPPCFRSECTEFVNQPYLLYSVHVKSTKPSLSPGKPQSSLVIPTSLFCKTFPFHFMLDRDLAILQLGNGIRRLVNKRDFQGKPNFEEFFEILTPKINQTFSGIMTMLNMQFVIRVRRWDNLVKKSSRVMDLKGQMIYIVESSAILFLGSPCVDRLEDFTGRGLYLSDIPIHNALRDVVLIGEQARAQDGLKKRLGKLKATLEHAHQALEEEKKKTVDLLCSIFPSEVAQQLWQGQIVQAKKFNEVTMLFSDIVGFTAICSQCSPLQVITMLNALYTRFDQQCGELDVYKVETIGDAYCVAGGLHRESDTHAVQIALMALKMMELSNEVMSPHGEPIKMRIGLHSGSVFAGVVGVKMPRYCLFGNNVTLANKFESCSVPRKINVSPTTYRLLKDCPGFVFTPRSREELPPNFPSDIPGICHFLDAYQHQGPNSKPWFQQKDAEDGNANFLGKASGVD
Description: (§1) Investigations on the stimulation of recombinant soluble guanylate cyclase (sGC) by the compounds according to the invention with and without sodium nitroprusside, and with and without the haem-dependent sGC inhibitor 1H-1,2,4-oxadiazolo-(4,3a)-quinoxalin-1-one (ODQ) are carried out by the method described in detail in the following reference: M. Hoenicka, E. M. Becker, H. Apeler, T. Sirichoke, H. Schroeder, R. Gerzer and J.-P. Stasch, “Purified soluble guanylyl cyclase expressed in a baculovirus/Sf9 system: Stimulation by YC-1, nitric oxide, and […]”, J. Mol. Med. 77 (1999), 14-23. The haem-free guanylate cyclase is obtained by adding Tween 20 to the sample buffer (0.5% in the final concentration).
(§2) The activation of sGC by a test substance is reported as x-fold stimulation of the basal activity.

[3] = target: T2, soluble guanylate cyclase (sGC) (Rattus norvegicus, UniProt P20595); experiment: Stimulation of sGC enzyme activity (PPi detection, luciferase luminescence); format: biochemical
T2 construct: made in house; host or cells: Sf9 insect cells (baculovirus)
T2 sequence (P20595 1-619): T1 sequence (P20595 1-619)
T2 sequence (P19686 1-690 partner): T1 sequence (P19686 1-690 partner)
Description: Soluble guanylate cyclase (sGC) converts on stimulation GTP into cGMP and pyrophosphate (PPi). PPi is detected with the aid of the assay described below. The signal produced in the assay increases as the reaction progresses and serves as a measure of the sGC enzyme activity under the given stimulation.
To carry out the assay, 29 μl of enzyme solution [0-10 nM soluble guanylate cyclase (prepared according to Hönicka et al., J. Mol. Med. 77, 14-23 (1999)) in 50 mM TEA, 2 mM MgCl2, 0.1% BSA (fraction V), 0.005% Brij®, pH 7.5] are initially introduced into a microplate, and 1 μl of the substance to be tested (as a serially diluted solution in DMSO) is added. The mixture is incubated at room temperature for 10 min. Then 20 μl of detection mix [1.2 nM Firefly Luciferase (Photinus pyralis luciferase, Promega), 29 μM dehydroluciferin (prepared according to Bitler & McElroy, Arch. Biochem. Biophys. 72, 358 (1957)), 122 μM luciferin (Promega), 153 μM ATP (Sigma) and 0.4 mM DTT (Sigma) in 50 mM TEA, 2 mM MgCl2, 0.1% BSA (fraction V), 0.005% Brij®, pH 7.5] are added. The enzyme reaction is started by adding 20 μl of substrate solution [1.25 mM guanosine 5′-triphosphate (Sigma) in 50 mM TEA, 2 mM MgCl2, 0.1% BSA (fraction V), 0.005% Brij®, pH 7.5] and measured continuously in a luminometer. The extent of the stimulation by the substance to be tested can be determined relative to the signal of the unstimulated reaction.
The activation of haem-free guanylate cyclase is examined by addition of 25 μM of 1H-1,2,4-oxadiazolo[4,3-a]quinoxalin-1-one (ODQ) to the enzyme solution and subsequent incubation for 30 minutes, and compared to the stimulation of the native enzyme.

[4] = target: T3, haem-containing recombinant soluble guanylate cyclase (sGC) (Rattus norvegicus, UniProt P20595); experiment: Stimulation of recombinant soluble guanylate cyclase (sGC) in vitro, haem-containing enzyme; format: biochemical
T3 construct: made in house; host or cells: Sf9 insect cells (baculovirus)
T3 sequence (P20595 1-619): T1 sequence (P20595 1-619)
T3 sequence (P19686 1-690 partner): T1 sequence (P19686 1-690 partner)
Description: as §1, §2

C[C@H]([C@H](C(=O)Nc1cc(CCC(=O)O)ccc1Cl)c1ccc(Cl)cc1)C(F)(F)F [Example 15, (+)-3-(4-Chloro-3-{[(2S,3R)-2-(4-chlorophenyl)-4,4,4-trifluoro-3-methylbutanoyl]amino}phenyl)-propanoic acid]
minimal effective concentration [1]: 0.01 µM | Stimulation (x-fold) of recombinant sGC, haem-free sGC, basal ([2]; 0.01 μM test compound): 1.7 ± 0.3 x-fold | Stimulation (x-fold) of recombinant sGC, haem-free sGC, basal ([2]; 0.1 μM test compound): 1.8 ± 0.2 x-fold | Stimulation (x-fold) of recombinant sGC, haem-free sGC, basal ([2]; 1.0 μM test compound): 3.0 ± 0.5 x-fold | Stimulation (x-fold) of recombinant sGC, haem-free sGC, basal ([2]; 10 μM test compound): 17.9 ± 3.1 x-fold | Stimulation (x-fold) of recombinant sGC, haem-free sGC, basal ([2]; 100 μM test compound): 40.3 ± 6.6 x-fold | EC50 ([3]; EC50 = concentration at 50% of maximum efficacy, read-out: Activating action at the sGC enzyme in vitro, EC50): 290 nM | Activating action at the sGC enzyme in vitro, MEC ([3]; MEC = minimal effective concentration): 10 nM | Stimulation (x-fold) of recombinant sGC, haem-containing sGC, +0.01 μM DEA/NO ([4]; 0.01 μM test compound): 5.9 ± 0.7 x-fold | Stimulation (x-fold) of recombinant sGC, haem-containing sGC, +10 μM ODQ ([4]; 0.01 μM test compound): 4.6 ± 0.8 x-fold | Stimulation (x-fold) of recombinant sGC, haem-containing sGC, basal ([4]; 0.01 μM test compound): 1.1 ± 0.1 x-fold | Stimulation (x-fold) of recombinant sGC, haem-containing sGC, +0.01 μM DEA/NO ([4]; 0.1 μM test compound): 7.4 ± 0.8 x-fold | Stimulation (x-fold) of recombinant sGC, haem-containing sGC, +10 μM ODQ ([4]; 0.1 μM test compound): 4.5 ± 0.6 x-fold | Stimulation (x-fold) of recombinant sGC, haem-containing sGC, basal ([4]; 0.1 μM test compound): 1.0 ± 0.1 x-fold | Stimulation (x-fold) of recombinant sGC, haem-containing sGC, +0.01 μM DEA/NO ([4]; 1.0 μM test compound): 8.5 ± 0.7 x-fold | Stimulation (x-fold) of recombinant sGC, haem-containing sGC, +10 μM ODQ ([4]; 1.0 μM test compound): 4.8 ± 0.8 x-fold | Stimulation (x-fold) of recombinant sGC, haem-containing sGC, basal ([4]; 1.0 μM test compound): 0.9 ± 0.1 x-fold | Stimulation (x-fold) of recombinant sGC, haem-containing sGC, +0.01 μM DEA/NO ([4]; 10 μM test compound): 11.5 ± 0.9 x-fold | Stimulation (x-fold) of recombinant sGC, haem-containing sGC, +10 μM ODQ ([4]; 10 μM test compound): 16.3 ± 1.3 x-fold | Stimulation (x-fold) of recombinant sGC, haem-containing sGC, basal ([4]; 10 μM test compound): 3.1 ± 0.3 x-fold | Stimulation (x-fold) of recombinant sGC, haem-containing sGC, +0.01 μM DEA/NO ([4]; 100 μM test compound): 45.9 ± 3.1 x-fold | Stimulation (x-fold) of recombinant sGC, haem-containing sGC, +10 μM ODQ ([4]; 100 μM test compound): 97.3 ± 7.7 x-fold | Stimulation (x-fold) of recombinant sGC, haem-containing sGC, basal ([4]; 100 μM test compound): 31.6 ± 2.6 x-fold | Effect of combination with the NO donor DEA/NO on sGC stimulation ([4]; combination with DEA/NO, haem-containing sGC): no synergistic effect
